Like-named read-outs stand apart in the source and are kept apart here.
Key:
LmxCLK1 = molecular target: T1, LmxCLK1 (Leishmania mexicana, UniProt E9AMP2); assay: biochemical; type: binding
T1 sequence (E9AMP2 1-422): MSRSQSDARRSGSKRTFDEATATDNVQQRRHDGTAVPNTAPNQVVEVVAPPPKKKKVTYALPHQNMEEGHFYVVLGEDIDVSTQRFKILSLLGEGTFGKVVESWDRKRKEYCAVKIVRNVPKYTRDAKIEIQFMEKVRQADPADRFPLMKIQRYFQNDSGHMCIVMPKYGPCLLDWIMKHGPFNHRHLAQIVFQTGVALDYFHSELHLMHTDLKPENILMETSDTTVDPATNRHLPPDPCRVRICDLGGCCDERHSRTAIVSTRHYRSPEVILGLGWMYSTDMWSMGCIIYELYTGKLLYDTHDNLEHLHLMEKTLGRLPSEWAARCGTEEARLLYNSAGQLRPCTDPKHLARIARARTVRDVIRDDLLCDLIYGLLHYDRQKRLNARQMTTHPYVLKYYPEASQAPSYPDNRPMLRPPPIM

NLuc::LmxCLK1 = NLuc::LmxCLK1 (Leishmania mexicana, UniProt E9AMP2); assay: cell-based; type: cell-based; conditions: for Target occupancy Run 1 / Target occupancy Run 2 / Target occupancy Average: 10 µM compound, tracer SV366, promastigotes; for Target occupancy Average: mean of two experiments
Method: All compounds were tested at a fixed concentration of 10 µM to enable direct comparison of their target occupancy in live cells.
Serially diluted probes (5 µL) were added to 85 µL of cells in culture media or 85 µL of purified protein. Final well volumes were adjusted to 100 µL with sterile Opti-MEM™ I Reduced Serum Medium (Thermo-Scientific) – for wells containing cells; or Kinase Buffer - for wells containing purified protein. For tracer displacement assays, samples were prepared as above, but final volume was brought to 100 µL by addition of vehicle or serially-diluted test compounds. Final DMSO concentration in these assays was 1%. […] Light emissions at 460+10 nm (BRET donor) and at 610+20 nm (BRET acceptor) were sequentially recorded (integration time = 0.5 s, gain = 3600) using a luminometer (BMG LABTECH Clariostar or Biotek Synergy HT). BRET values are reported in milli-BRET (mBRET) units (mBU), obtained by dividing the acceptor luminescence by the donor luminescence and multiplying the result by a factor of 1,000. BRET values were converted to blank-corrected probe occupancies (%) according to equation [1]: (1) Probeoccupancy(%)=X−Z/Y−Z×100 where X = mBRET value in the presence of the test compound and the probe, Y = mBRET value in the presence of probe only, and Z = mBRET value in the absence of probe and test compound. […]

[1] = DSF, 10 µM compound, 2 µM LmxCLK1, Run 1
[2] = DSF, 10 µM compound, 2 µM LmxCLK1, Run 2
[3] = DSF, 10 µM compound, 2 µM LmxCLK1, mean of two runs
[4] = DSF, 10 µM compound, 2 µM LmxCLK1, Run 1, read-out: ΔTm Run 1
[5] = DSF, 10 µM compound, 2 µM LmxCLK1, Run 2, read-out: ΔTm Run 2
[6] = DSF, 10 µM compound, 2 µM LmxCLK1, mean of two runs, read-out: ΔTm Average
[7] = read-out: Target occupancy Average
[8] = read-out: Target occupancy Run 1
[9] = read-out: Target occupancy Run 2

Molecule: CNC(=O)c1ccccc1Nc1nc(Nc2ccc(N3CCOCC3)cc2OC)ncc1Cl [TAE226 (NVP-TAE226)]
- ΔTm Run 1 (LmxCLK1; [1]): 0.2 °C
- ΔTm Run 2 (LmxCLK1; [2]): -0.1 °C
- ΔTm Average (LmxCLK1; [3]): 0.0 °C
- Target occupancy Run 1 (NLuc::LmxCLK1): -26.7%
- Target occupancy Run 2 (NLuc::LmxCLK1): -0.7%
- Target occupancy Average (NLuc::LmxCLK1): -13.7%

Molecule: Cc1ccc(S(=O)(=O)/C=C/C#N)cc1 [BAY 11-7082]
- ΔTm Run 1 (LmxCLK1; [1]): -0.4 °C
- ΔTm Run 2 (LmxCLK1; [2]): -0.2 °C
- ΔTm Average (LmxCLK1; [3]): -0.3 °C
- Target occupancy Run 1 (NLuc::LmxCLK1): -17.1%
- Target occupancy Run 2 (NLuc::LmxCLK1): -14.7%
- Target occupancy Average (NLuc::LmxCLK1): -15.9%

Molecule: NC(=O)Nc1sc(-c2ccc(F)cc2)cc1C(N)=O [TPCA-1]
- ΔTm Run 1 (LmxCLK1; [1]): 0.1 °C
- ΔTm Run 2 (LmxCLK1; [2]): 0.2 °C
- ΔTm Average (LmxCLK1; [3]): 0.2 °C
- Target occupancy Run 1 (NLuc::LmxCLK1): 1.2%
- Target occupancy Run 2 (NLuc::LmxCLK1): -7.6%
- Target occupancy Average (NLuc::LmxCLK1): -3.2%

Molecule: AZD4547
- ΔTm Run 1 (LmxCLK1; [1]): -0.1 °C
- ΔTm Run 2 (LmxCLK1; [2]): -0.3 °C
- ΔTm Average (LmxCLK1; [3]): -0.2 °C
- Target occupancy Run 1 (NLuc::LmxCLK1): -24.6%
- Target occupancy Run 2 (NLuc::LmxCLK1): 21.5%
- Target occupancy Average (NLuc::LmxCLK1): -1.5%

Molecule: N#CC1(c2ccc(NC(=O)c3cccnc3NCc3ccncc3)cc2)CCCC1 [Apatinib]
- ΔTm at 10 µM (LmxCLK1; [4]): -0.2 °C
- ΔTm at 10 µM (LmxCLK1; [5]): -0.4 °C
- ΔTm at 10 µM (LmxCLK1; [6]): -0.3 °C
- receptor occupancy at 10 µM (NLuc::LmxCLK1; [7]): -8.5%
- receptor occupancy at 10 µM (NLuc::LmxCLK1; [8]): -9.2%
- receptor occupancy at 10 µM (NLuc::LmxCLK1; [9]): -7.8%

Molecule: CCN1/C(=C/C(C)=O)Sc2ccc(OC)cc21 [TG003]
- ΔTm Run 1 (LmxCLK1; [1]): 1.4 °C
- ΔTm Run 2 (LmxCLK1; [2]): 1.2 °C
- ΔTm Average (LmxCLK1; [3]): 1.3 °C
- Target occupancy Run 1 (NLuc::LmxCLK1): 10.1%
- Target occupancy Run 2 (NLuc::LmxCLK1): -15.2%
- Target occupancy Average (NLuc::LmxCLK1): -2.5%

Molecule: COc1ccc2c(c1)c(C1=C(c3c[nH]c4ccccc34)C(=O)NC1=O)cn2CCCN(C)C [Go 6983]
- ΔTm Run 1 (LmxCLK1; [1]): 0.6 °C
- ΔTm Run 2 (LmxCLK1; [2]): 0.0 °C
- ΔTm Average (LmxCLK1; [3]): 0.3 °C
- Target occupancy Run 1 (NLuc::LmxCLK1): -11.0%
- Target occupancy Run 2 (NLuc::LmxCLK1): -14.1%
- Target occupancy Average (NLuc::LmxCLK1): -12.6%

Molecule: c1cncc(CN2CCC(n3ncc4c(N5CCOCC5)nc(-c5ccc6[nH]ccc6c5)nc43)CC2)c1 [WAY-600]
- ΔTm Run 1 (LmxCLK1; [1]): 0.0 °C
- ΔTm Run 2 (LmxCLK1; [2]): -0.4 °C
- ΔTm Average (LmxCLK1; [3]): -0.2 °C
- Target occupancy Run 1 (NLuc::LmxCLK1): 4.0%
- Target occupancy Run 2 (NLuc::LmxCLK1): -10.8%
- Target occupancy Average (NLuc::LmxCLK1): -3.4%

Molecule: COC[C@H]1OC(=O)c2coc3c2[C@@]1(C)C1=C(C3=O)[C@@H]2CCC(=O)[C@@]2(C)C[C@H]1OC(C)=O [Wortmannin]
- ΔTm at 10 µM (LmxCLK1; [4]): 0 °C
- ΔTm at 10 µM (LmxCLK1; [5]): -0.3 °C
- ΔTm at 10 µM (LmxCLK1; [6]): -0.2 °C
- receptor occupancy at 10 µM (NLuc::LmxCLK1; [7]): -3.6%
- receptor occupancy at 10 µM (NLuc::LmxCLK1; [8]): -2.4%
- receptor occupancy at 10 µM (NLuc::LmxCLK1; [9]): -4.8%

Molecule: CC(C)n1nc(-c2ccc3oc(N)nc3c2)c2c(N)ncnc21 [INK 128 (MLN0128)]
- ΔTm Run 1 (LmxCLK1; [1]): 0.6 °C
- ΔTm Run 2 (LmxCLK1; [2]): 0.5 °C
- ΔTm Average (LmxCLK1; [3]): 0.5 °C
- Target occupancy Run 1 (NLuc::LmxCLK1): -0.8%
- Target occupancy Run 2 (NLuc::LmxCLK1): 0.1%
- Target occupancy Average (NLuc::LmxCLK1): -0.3%

Molecule: O=C1NC(=O)C(=Cc2ccc(-c3ccc(F)cc3)o2)S1 [CAY10505]
- ΔTm Run 1 (LmxCLK1; [1]): 0.1 °C
- ΔTm Run 2 (LmxCLK1; [2]): -0.1 °C
- ΔTm Average (LmxCLK1; [3]): 0.0 °C
- Target occupancy Run 1 (NLuc::LmxCLK1): -12.3%
- Target occupancy Run 2 (NLuc::LmxCLK1): 10.0%
- Target occupancy Average (NLuc::LmxCLK1): -1.2%

Molecule: CC(C)(C)c1nc(-c2cccc(NS(=O)(=O)c3c(F)cccc3F)c2F)c(-c2ccnc(N)n2)s1 [Dabrafenib (GSK2118436)]
- ΔTm Run 1 (LmxCLK1; [1]): -0.2 °C
- ΔTm Run 2 (LmxCLK1; [2]): 0.0 °C
- ΔTm Average (LmxCLK1; [3]): -0.1 °C
- Target occupancy Run 1 (NLuc::LmxCLK1): 0.7%
- Target occupancy Run 2 (NLuc::LmxCLK1): -7.9%
- Target occupancy Average (NLuc::LmxCLK1): -3.6%

Molecule: O=C(NC1CCNCC1)c1[nH]ncc1NC(=O)c1c(Cl)cccc1Cl [AT7519]
- ΔTm at 10 µM (LmxCLK1; [4]): 0.4 °C
- ΔTm at 10 µM (LmxCLK1; [5]): 0.5 °C
- ΔTm at 10 µM (LmxCLK1; [6]): 0.4 °C
- receptor occupancy at 10 µM (NLuc::LmxCLK1; [7]): -13.8%
- receptor occupancy at 10 µM (NLuc::LmxCLK1; [8]): 6.4%
- receptor occupancy at 10 µM (NLuc::LmxCLK1; [9]): -34%

Molecule: O=C(/C=C/c1ccc2ccccc2n1)c1ccncc1 [PFK15]
- ΔTm Average (LmxCLK1): 0.1 °C
- ΔTm Run 1 (LmxCLK1): 0.2 °C
- ΔTm Run 2 (LmxCLK1): 0.1 °C
- Target occupancy Run 1 (NLuc::LmxCLK1): -10.7%
- Target occupancy Run 2 (NLuc::LmxCLK1): -9.2%
- Target occupancy Average (NLuc::LmxCLK1): -10.0%

— PMC7619385 (ACS infectious diseases, 2025)
